Data reported in patent publication US8030547B2, “Gene coding for acetolactate synthase” (priority 2002, dated 2011).
Values joined by “and” are separate entries in the source; they are usually repeats but may differ in a detail not shown here. Equal entries are not always repeated.

Key:
Type in all cases: biochemical, rice (Oryza sativa var. Kinmaze)
[1] = molecular target: T1, GST fusion P171H/W548L mutant ALS protein (Oryza sativa subsp. japonica, UniProt Q6K2E8, P171H/W548L); experiment: Herbicide sensitivity of ALS protein expressed in E. coli (crude enzyme solution), P171H/W548L; details: for RS ratio: P171H/W548L mutant vs wild type; for Predicted RS ratio / RS ratio/ predicted RS ratio: P171H/W548L mutant; for Predicted RS ratio: product of RS ratios of the 1-point mutants; for inhibition at 100 µM: read-out: inhibition % at the highest concentration among the concentrations tested, P171H/W548L mutant, in 100 μM
T1 construct: made in house; host or cells: E. coli, pGEX-2T(ALS-P171H, W548L mutant); crude supernatant
Experimental: (§1) ALS activity resulting from the mutant ALS protein contained in the eluted fractions apportioned into each test tube for apportioning was measured as follows. A reaction solution to be used in a measurement reaction was prepared by mixing an eluted fraction to be measured with a solution comprising 20 mM sodium pyruvate, 0.5 mM TPP, 0.5 mM MgCl2, 10 μM FAD and 20 mM potassium phosphate buffer (pH 7.5). One ml of this reaction solution was used. After the eluted fraction to be measured was added, the measurement reaction was performed at 30° C. for 40 to 60 minutes. Then, the reaction was stopped by addition of 0.1 ml of 6N sulfuric acid (or 0.25 N sodium hydroxide).
(§2) After the reaction was stopped, the reaction solution was incubated at 60° C. for 10 minutes, thereby converting acetolactate contained in the reaction solution to acetoin.
(§3) Then, to quantify acetoin contained in the reaction solution, 1 ml of 0.5% (w/v) creatine and 1 ml of 5% (w/v) α-naphthol dissolved in 2.5 N sodium hydroxide was added to the reaction solution, followed by incubation at 37° C. for 10 minutes. Acetoin was then quantified by color comparison of the absorbance (at 525 nm) of the reaction solution, thereby evaluating ALS activity. In addition, since the reaction solution contained a small amount of sodium pyruvate, reaction time 0 was used as control.
(§4) E. coli transformed with pGEX-2T(ALS-wild) constructed in Example 3(5), E. coli transformed with pGEX-2T(ALS-W548L mutant) constructed in Example 5, E. coli transformed with pGEX-2T(ALS-S627I mutant) constructed in Example 5, E. coli transformed with pGEX-2T(ALS P171H mutant) constructed in Example 6, E. coli transformed with pGEX-2T(ALS R172S mutant) constructed in Example 6, E. coli transformed with pGEX-2T(ALS P171H, R172S mutant) constructed in Example 7, E. coli transformed with pGEX-2T(ALS-P171H, W548L mutant) constructed in Example 8, E. coli transformed with pGEX-2T(ALS-P171H, S627I mutant) constructed in Example 8, and E. coli transformed with pGEX-2T(ALS-P171H, W548L, S627I mutant) constructed in Example 9 were respectively shake-cultured (pre-culture) at 27° C. in 2 ml of LB liquid medium containing ampicillin. These types of E. coli were respectively cultured in 250 ml of LB liquid medium containing ampicillin using 1 ml of the pre-culture solution. After culturing overnight, 1 mM IPTG was added to the media, and then culturing was performed for a further 3 to 4 hours, so that the expression of GST fusion protein was induced. In addition, the cells were stored at −80° C. after washing.
(§5) Preparation and purification of ALS from E. coli were performed by the following method. First, the pellet of the transformant E. coli stored at −80° C. was suspended in ALS extraction buffer (potassium phosphate buffer (pH 7.5) containing 30% glycerol and 0.5 mM MgCl2). Specifically, 2.5 ml of the buffer was added to the pellet obtained from 50 ml of the culture solution. The suspension was subjected to ultrasonication (Heat Systems-Ultrasonics, Sonicator W-225R, micro chip, output control 8, interval of approximately 1 second, twice (40 seconds each)), and subjected to centrifugation at 15000×g, 4° C. for 20 minutes, thereby obtaining the supernatant as a crude enzyme solution.
(§6) Herbicide sensitivity of the wild type ALS protein and that of mutant ALS protein were examined using the 9 types of crude enzyme solutions obtained in Example 10. Herbicide sensitivity test was performed according to procedures almost the same as those in Example 2. However, in this example, reaction temperature was 37° C., reaction time was 30 minutes, and 10 mM valine was added to the reaction solution to inhibit ALS activity derived from E. coli. Further, three types of herbicides, bispyribac-sodium, pyrithiobac-sodium, and pyriminobac, were used as PC herbicides; chlorsulfuron was used as a sulfonylurea herbicide; and imazaquin was used as an imidazolinon herbicide. […]

[2] = molecular target: T2, GST fusion S627I mutant ALS protein (Oryza sativa subsp. japonica, UniProt Q6K2E8, S627I); experiment: Herbicide sensitivity of ALS protein expressed in E. coli (crude enzyme solution), S627I; details: for RS ratio: S627I mutant vs wild type
T2 construct: an expression vector having the full-length wild type ALS cDNA incorporated into the Eco RI site of pGEX-2T; made in house; host or cells: E. coli JM109, pGEX 2T(ALS-S627I mutant); crude supernatant
Experimental: as §1, §2, §3, §4, §5, §6

[3] = molecular target: T3, GST fusion P171H/R172S mutant ALS protein (Oryza sativa subsp. japonica, UniProt Q6K2E8, P171H/R172S); experiment: Herbicide sensitivity of ALS protein expressed in E. coli (crude enzyme solution), P171H/R172S; details: for RS ratio/ predicted RS ratio / Predicted RS ratio: P171H/R172S mutant; for RS ratio: P171H/R172S mutant vs wild type; for Predicted RS ratio: product of RS ratios of the 1-point mutants
T3 construct: made in house; host or cells: E. coli JM109, pGEX-2T(ALS P171H, R172S mutant); crude supernatant
Experimental: as §1, §2, §3, §4, §5, §6

[4] = molecular target: T4, GST fusion R172S mutant ALS protein (Oryza sativa subsp. japonica, UniProt Q6K2E8, R172S); experiment: Herbicide sensitivity of ALS protein expressed in E. coli (crude enzyme solution), R172S; details: for RS ratio: R172S mutant vs wild type
T4 construct: an expression vector having the full-length wild type ALS cDNA incorporated into the Eco RI site of pGEX-2T; made in house; host or cells: E. coli JM109, pGEX-2T(ALS R172S mutant); crude supernatant
Experimental: as §1, §2, §3, §4, §5, §6

[5] = molecular target: T5, GST fusion P171H mutant ALS protein (Oryza sativa subsp. japonica, UniProt Q6K2E8, P171H); experiment: Herbicide sensitivity of ALS protein expressed in E. coli (crude enzyme solution), P171H; details: for RS ratio: P171H mutant vs wild type
T5 construct: an expression vector having the full-length wild type ALS cDNA incorporated into the Eco RI site of pGEX-2T; made in house; host or cells: E. coli JM109, pGEX-2T(ALS P171H mutant); crude supernatant
Experimental: as §1, §2, §3, §4, §5, §6

T4 sequence (Q6K2E8 44-644 R172S): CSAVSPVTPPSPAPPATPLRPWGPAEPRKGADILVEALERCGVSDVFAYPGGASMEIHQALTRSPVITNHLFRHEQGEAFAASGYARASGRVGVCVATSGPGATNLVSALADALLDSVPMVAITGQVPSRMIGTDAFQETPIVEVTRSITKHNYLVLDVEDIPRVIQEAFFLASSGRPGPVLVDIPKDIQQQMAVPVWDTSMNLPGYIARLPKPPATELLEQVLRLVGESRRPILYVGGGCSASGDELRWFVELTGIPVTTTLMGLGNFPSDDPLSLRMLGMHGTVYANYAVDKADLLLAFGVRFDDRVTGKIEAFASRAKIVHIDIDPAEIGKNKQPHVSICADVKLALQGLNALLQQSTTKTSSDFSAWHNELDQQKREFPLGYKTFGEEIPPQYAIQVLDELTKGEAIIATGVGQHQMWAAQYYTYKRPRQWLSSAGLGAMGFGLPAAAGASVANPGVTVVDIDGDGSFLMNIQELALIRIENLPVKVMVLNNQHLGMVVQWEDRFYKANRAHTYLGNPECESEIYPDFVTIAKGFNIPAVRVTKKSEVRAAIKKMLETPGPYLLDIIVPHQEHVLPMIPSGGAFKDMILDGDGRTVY
T5 sequence (Q6K2E8 44-644 P171H): as the sequence (Q6K2E8 44-644 R172S) above, with P128H, S129R counted along it
T2 sequence (Q6K2E8 44-644 S627I): as the sequence (Q6K2E8 44-644 R172S) above, with S129R, S584I counted along it
T3 sequence (Q6K2E8 44-644 P171H/R172S): as the sequence (Q6K2E8 44-644 R172S) above, with P128H counted along it
T1 sequence (Q6K2E8 44-644 P171H/W548L): as the sequence (Q6K2E8 44-644 R172S) above, with P128H, S129R, W505L counted along it

| SMILES | RS ratio [1] | Predicted RS ratio [1] | inhibition at 100 µM [1] | IC50 [2] | IC50 [3] | RS ratio/ predicted RS ratio [3] | RS ratio [3] | Predicted RS ratio [3] | IC50 [4] | RS ratio [4] | IC50 [5] | RS ratio [5] | RS ratio/ predicted RS ratio [1] | RS ratio [2] |
| --- | --- | --- | --- | --- | --- | --- | --- | --- | --- | --- | --- | --- | --- | --- |
| CC(C)C1(C)N=C(c2nc3ccccc3cc2C(=O)O)NC1=O (stereo not shown) [imazaquin] | >45 | >68 | 13% | 15 µM | 3.9 µM | 1.2 | 1.8 | 1.5 | 2.3 µM | 0.98 and 1 | 3.4 µM | 1.5 |  |  |
| COc1nc(C)nc(NC(=O)NS(=O)(=O)c2ccccc2Cl)n1 [chlorsulfuron] | >7700 | 65000 | 16% | 0.031 µM | 5.5 µM | 5.8 | 420 | 72 | 0.011 µM | 0.85 | 1.1 µM | 85 | >0.18 | 2.4 |
| COc1cc(OC)nc(Oc2cccc(Oc3nc(OC)cc(OC)n3)c2C(=O)O)n1 [bispyribac-sodium] | >15000 | 4500 | 5% | 0.26 µM | 0.048 µM | 0.89 | 7.6 | 8.5 | 0.0062 µM | 0.98 | 0.055 µM | 8.7 | >3.3 | 41 |
